According to US20100267653A1, “USE OF COUMARIN DERIVATIVES IN ANTIFUNGAL THERAPY” (priority 2006, published 2010):
In brackets after ≈: the same amount, converted by molar mass. Read-outs that look alike come from different tables or passages of the source. Blank lines part the entries; values can stand above or below the compound they belong to.

Tests used:
[1] = test system: Trichophyton rubrum NCPF118; assay: Antifungal activity, growth in RPMI 1640 microtitre plates (OD 530 nm); format: cell-based; details: for MIC: T. rubrum NCPF118, 30° C.
Procedure: Esculin, esculetin and a range of other coumarins and their glycosides were tested for their antifungal activity against Trichophyton rubrum, Trichophyton interdigitale and other fungi isolated from nails and skin.
Suspensions of fungal conidia and hyphal fragments for use as experimental inocula were prepared by adding 3 ml of demineralised water or 0.15% (w/v) NaCl solution to a slope culture which had been incubated at 30° C. for 7 to 10 days and probing the surface of the culture with a sterile plastic transfer pipette. […] The resulting suspension was filtered through a double layer of sterile surgical gauze; if necessary a further volume of up to 3 ml of water or 0.15% (w/v) NaCl was used to wash through any spores or small hyphal fragments held on the gauze. 100 μl of this suspension, adjusted to an optical density between 0.14 and 0.16 at 530 nm (corresponding to between 0.5 and 1.5×10^6 propagules/ml) was added to the wells in sterile 96-well microtitre plates to which 100 μl of 2× strength RPMI 1640 media (a chemically-defined nutrient medium widely used in tissue culture and antimicrobial resistance testing) had been added. Inocula prepared in this way were used in all of the experiments; additionally, for some experiments with esculin shown in FIG. 4, the results obtained with standard inocula prepared as described above (labelled “young inoculum” in FIG. 4), were compared with the results obtained in similar tests using inocula which had been cultured for up to 9 weeks (labelled “old inoculum” in FIG. 4). As appropriate, coumarins were pre-dissolved in 2× strength RPMI 1640 medium before addition to the plate. Experiments with the yeasts Candida albicans and Candida krusei were set up in the same way, but in these cases, filtration of the cell suspensions was not necessary.
(§1) Solubilisation of other compounds required the presence of DMSO. Esculetin, daphnetin, 4-(trifluoromethyl) coumarin, 4-(trifluoromethyl)-coumarin-7-0-glucose and cichoriin were dissolved in DMSO at 1000× final test concentration; when this solution was diluted to the concentration used in the experiments using 2× strength RPMI 1640 medium, the final concentration of DMSO was […] which alone had no effect on the fungi when tested in several experiments performed. Fraxetin required a final concentration of 0.2% DMSO, but this too had no effect on the growth of the fungi when tested in separate experiments.
A series of dilutions of the coumarin solutions was prepared on the plates by mixing known volumes of the coumarin stock solutions in the wells with fresh volumes of 2×RPMI 1640 medium. Each concentration of coumarin was studied in triplicate wells. For observations on Trichophyton rubrum NCPF118 and Trichophyton interdigitale NCPF335, obtained from the National Collection of Pathogenic Fungi (Bristol), the plates were incubated in a Bio-Tek Powerwave XS scanning plate reader at 30° C., and fungal growth within the plates was measured at intervals of 2 h for up to 72 h or 96 h as specified in the text by recording the absorbance (optical density) of the wells at 530 nm. Observations on Candida albicans and Candida krusei were made in the same way, but the incubation temperature was 37° C. and the incubation time was 48 h. For observations with clinical fungal isolates obtained from the collection of M. Monod (Lausanne, Switzerland), the procedure was as described above except that in response to the relatively slow growth of these isolates, incubations were performed in a static incubator at 30° C. and the plates were read manually in a Bio-Tek Powerwave XS scanning plate reader at intervals of 24 h for up to 168 h, being returned to the incubator after each reading. Malassezia furfur grows poorly in the system described above, so for this organism, a standard inoculum of M. furfur was mixed with an equal volume of a solution of esculetin and the mixture was plated onto Petri dishes containing Sabouraud's agar medium. […]

[2] = Solubility of coumarins in RPMI 1640 media and DMSO; format: physicochemical
Procedure: The solubility of the aglycones was compared to the respective glycoside in RPMI 1640 media and in DMSO.
as §1

MIC [1]: 1000 µM (≈ 192 µg/mL)
Compound: Cc1cc(=O)oc2cc(O)c(O)cc12 [4 methyl esculetin]

solubility (in words) [2]: only being soluble at low concentrations | DMSO Concentration ([2]; DMSO present for the stated solubility in RPMI 1640): 0.2 % v/v | solubility ([2]; RPMI 1640 medium with DMSO co-solvent, aqueous buffer, kinetic from dmso stock, pH = 7.0, in presence of the DMSO concentration of the same table line): 2000 µM | MIC ([1]; Trichophyton rubrum, read-out: MIC): 1000 µM (≈ 230 µg/mL)
Compound: O=c1cc(C(F)(F)F)c2ccc(O)cc2o1 [4-(trifluoromethyl)coumarin, 7-hydroxy-4-(trifluoromethyl)coumarin]
activity of halogenated coumarin aglycone versus T. rubrum NCPF118 ([1]; at concentrations of 1-2 mM, FIG. 6): significantly antifungal

DMSO Concentration ([2]; pH 7): 0 % v/v
Compound: O=c1cc(C(F)(F)F)c2ccc(OC3O[C@H](CO)[C@@H](O)[C@H](O)[C@H]3O)cc2o1 (stereo partly shown) [4-(trifluoromethyl)coumarin-7-glucoside]
